A short description of series [1]: Antioxidant activity assessed as DPPH free radical scavenging activity. The series is classed as functional. (In general: The DPPH test is a chemical assay of radical scavenging.)
A short description of series [2]: Electrochemical behaviour of the compound assessed as peak potential using disposable screen-printed carbon electrodes. The series is classed as physicochemical.
Series [3] can be described thus: Antioxidant activity assessed as alkoxyl radical scavenging activity by measuring rate constant by ESR spin trapping method. The series is classed as functional.
Series [4] in a line: Antioxidant activity assessed as hydroxyl radical scavenging activity by measuring rate constant using UV irradiation by ESR spin trapping method. The series is classed as functional.
Series [5] is described as follows: Antioxidant activity assessed as singlet oxygen scavenging activity by measuring rate constant using VIS irradiation by ESR spin trapping method. The series is classed as functional.
The nature of series [6]: Antioxidant activity assessed as superoxide anion free radical scavenging activity by measuring rate constant using UV irradiation by ESR spin trapping method. The series is classed as functional.
A short description of series [7]: Electrochemical behaviour of the compound assessed as peak potential. The series is classed as physicochemical.
A short description of series [8]: Metal chelating activity assessed as equilibrium constant for formation of compound-Fe2+ complex formation.
A short description of series [9]: Metal chelating activity assessed as equilibrium constant for formation of compound-Cu2+ complex formation.
Series [10] is described as follows: Metal chelating activity assessed as equilibrium constant for formation of compound-Al3+ complex formation.
The nature of series [11]: Antioxidant activity assessed as effect on linolenic acid autooxidation in presence of 0.015 M SDS based micellar systems. The series is classed as functional.
Series [12] can be described thus: Antioxidant activity assessed as effect on linolenic acid autooxidation in presence of DLPC liposomes. The series is classed as functional.
Series [13] can be described thus: Antioxidant activity assessed as effect on linolenic acid autooxidation in presence of 0.5 M SDS based micellar systems. The series is classed as functional.

Molecules are shown by their SMILES.

As to `O=C(O)/C=C/c1ccccc1O` [O-COUMARIC ACID], the EC50 in series [1] was 130.05 µmol. Also, the Ep in [2] came to 750 mV.

Turning to `O=C(/C=C/c1ccc(O)c(O)c1)O[C@@H]1C[C@](O)(C(=O)O)C[C@@H](O)[C@H]1O`, the K came out at 111 ×10⁵ /M/s in [3], 9.6 ×10⁹ /M/s in [4], 38.6 ×10⁷ /M/s in [5] and 288 ×10³ /M/s in series [6].

For `COc1cc(/C=C/C(=O)O)cc(OC)c1O` [SINAPINATE], the Ep in series [7] fell in the range of 188 to 295 mV. In series [1], the EC50 stood at 0.0724 µmol.

As to `O=C(O)/C=C/c1ccc(O)c(O)c1` [CAFFEIC ACID], the Ep in series [7] worked out at 183 mV; in series [2], 450 mV. Also, the EC50 in [1] was found to be 0.0478 µmol. Further, the K amounted to 75.9 ×10⁵ /M/s in [3], 8.06 ×10⁹ /M/s in [4], 54.7 ×10⁷ /M/s in [5] and 10.6 ×10³ /M/s in [6].

`O=C(O)c1cc(O)ccc1O` [GENTISIC ACID]: the EC50 in series [1] amounted to 0.0292 µmol.

Take `O=C(O)c1ccc(O)c(O)c1` [PROTOCATECHUIC ACID]: the Ep in series [7] was 188 to 317 mV; in series [2] it was 410 mV. In addition, the EC50 in series [1] turned out to be 0.0574 µmol.

Turning to `COc1cc(C(=O)O)ccc1O` [VANILLIC ACID], the EC50 in series [1] was determined as 14.37 µmol. Besides, the Ep in series [2] was determined as 730 mV.

With `N[C@@H](CCC(=O)N[C@@H](CS)C(=O)NCC(=O)O)C(=O)O`, the K in series [3] was 27.6 ×10⁵ /M/s; in series [4], 16.4 ×10⁹ /M/s; in series [5] it was 93.9 ×10⁷ /M/s; in series [6], 1.11 ×10³ /M/s.

On to `C[C@@H]1O[C@@H](OC[C@H]2O[C@@H](Oc3c(-c4ccc(O)c(O)c4)oc4cc(O)cc(O)c4c3=O)[C@H](O)[C@@H](O)[C@@H]2O)[C@H](O)[C@H](O)[C@H]1O`, for which the K was found to be 69 ×10⁵ /M/s in series [3], 6.38 ×10⁹ /M/s in series [4], 34.8 ×10⁷ /M/s in [5] and 15.4 ×10³ /M/s in series [6].

Take `O=C(O)CC(O)(CC(=O)O)C(=O)O`: the K in [8] was 1600 M⁻¹; in series [9] it was 1000 to 100000 M⁻¹; in series [10], 1000 to 100000 M⁻¹.

As to `CC(=O)N[C@@H](CS)C(=O)O`, the K in series [3] turned out to be 19.3 ×10⁵ /M/s; in series [4], 13.6 ×10⁹ /M/s; in [5] it was 20.5 ×10⁷ /M/s; in series [6], 0.5 ×10³ /M/s.

As to `COc1cc(/C=C/C(=O)O)ccc1O` [FERULATE], the Ep was found to be 335 mV in [7] and 447 mV in [2]. In addition, the EC50 in series [1] was found to be 0.0927 µmol.

With `COc1cc(C(C)(C)C)c(O)c(C(C)(C)C)c1`, the K in [11] amounted to 2.5 ×10⁴ /M/s; in series [12], 2.75 ×10⁴ /M/s; in series [13], 1 ×10⁴ /M/s.

`O=C(O)/C=C/c1cc(O)c(O)c(O)c1`: the Ep in [7] came to 384 mV.

`O=C(O)c1ccc(O)cc1` [PARABEN]: the EC50 in [1] was over 800 µmol. Further, the Ep in series [2] is reported as 870 mV.

For `COc1cc(C(=O)O)cc(OC)c1O` [SYRINGIC ACID], in series [1], the EC50 came out at 0.0427 µmol. Also, in series [2], the Ep is 490 mV.

Regarding `O=C(O)/C=C/c1ccc(O)cc1` [COUMARIC ACID], the results for the Ep in [7] and in series [2] were 736 mV and 670 mV, respectively. The EC50 in series [1] is 66.29 µmol.

With `O=c1c(-c2ccc(O)cc2)coc2cc(O)cc(O)c12`, the K in [3] was found to be 20.7 ×10⁵ /M/s; in series [4] it was 11.8 ×10⁹ /M/s; in [5] it was 19.1 ×10⁷ /M/s; in [6], 2.75 ×10³ /M/s.

In the case of `Cc1c(C)c2c(c(C)c1O)CCC(C)(C(=O)O)O2` (centres undefined), the K was determined as 1 ×10⁴ /M/s in series [11]; 48.3 ×10⁵ /M/s in series [3]; 24.8 ×10⁹ /M/s in series [4]; 6.22 ×10⁷ /M/s in [5]; 0.58 ×10⁴ /M/s in series [12]; 2.1 ×10³ /M/s in series [6]. In addition, in series [13], the K stood at 110000 M⁻¹ s⁻¹.

Take `O=C(O)/C=C/c1cccc(O)c1`: the EC50 in [1] was over 300 µmol. In series [2], the Ep amounted to 780 mV.

For `O=C(O)c1ccccc1O` [SALICYLIC ACID], the EC50 in [1] was over 800 µmol. Moreover, in series [2], the Ep is on record as 940 mV.

As to `O=C(O)c1cc(O)c(O)c(O)c1` [GALLIC ACID], in [7], the Ep was 110 to 544 mV. For the same molecule, the EC50 in series [1] is 0.0237 µmol.

Take `Oc1nc(O)c2nc(O)[nH]c2n1`: the K worked out at 106 ×10⁵ /M/s in series [3], 9.52 ×10⁹ /M/s in series [4], 2.3 ×10⁷ /M/s in series [5] and 10.6 ×10³ /M/s in series [6].

Take `Cc1cc(C(C)(C)C)c(O)c(C(C)(C)C)c1`: the K was determined as 3.4 ×10⁴ /M/s in series [11], 0.37 ×10⁴ /M/s in [12] and 1.1 ×10⁴ /M/s in series [13].
